Measurements taken from patent US10670605B2, “Cysteine reactive probes and uses thereof” (The Scripps Research Institute, priority 2015, dated 2020).

Experiments:
CYR61 C70 (O00622) = CYR61 C70 (O00622) (Homo sapiens, UniProt O00622); assay: Competitive isoTOP-ABPP, cell lysates; assay type: binding
ACO2 C385 (Q99798) = ACO2 C385 (Q99798) (Homo sapiens, UniProt Q99798); assay: Competitive isoTOP-ABPP in situ; assay type: cell-based; details: MDA-MB-231 cells
USP16 C205 (Q9Y5T5) = USP16 C205 (Q9Y5T5) (Homo sapiens, UniProt Q9Y5T5); assay: Competitive isoTOP-ABPP in situ; assay type: cell-based; details: MDA-MB-231 cells
PRMT1 (C109) = biological target: T1, PRMT1 (C109) (Homo sapiens, UniProt Q99873); assay: Blockade of IA-rhodamine labeling of recombinant PRMT1 (gel-based ABPP); assay type: binding
T1 construct: Full length PRMT1 subcloned into pET45b (+) (Novagen) was previously generated by the Cravatt lab; inferred from Ni-NTA purification and the pET45b vector; made in house; host or cells: E. coli BL21(DE3)

WT-IDH1 (C269) = biological target: T2, WT-IDH1 (C269) (Homo sapiens, UniProt O75874); assay: Blockade of IA-rhodamine labeling of WT-IDH1; assay type: binding; details: 2 μM protein in MDA-MB-231 lysate
T2 construct: Full length cDNAs encoding for IDH1 (Open Biosystems, Clone ID: 3880331) and IMPDH2; His6 (C); made in house; host or cells: E. coli BL21(DE3)

IDH1 = biological target: T3, IDH1 (Homo sapiens, UniProt O75874); assay: IDH1 NADP assay; assay type: biochemical
T3 construct: Full length cDNAs encoding for IDH1 (Open Biosystems, Clone ID: 3880331) and IMPDH2; His6 (C); made in house; host or cells: E. coli BL21(DE3)
Experimental: To 25 μL of this mixture was added 1 μL of the indicated compound (25× stock solution in DMSO) and the lysates were incubated for 1 h at room temperature in clear 96 well plates (Corning® Costar®). […] Absorbance was measured for 45 minutes and the relative activities were calculated from the change in absorbance for the linear portion of the curve.

T1 sequence (Q99873 11-371 limits assumed): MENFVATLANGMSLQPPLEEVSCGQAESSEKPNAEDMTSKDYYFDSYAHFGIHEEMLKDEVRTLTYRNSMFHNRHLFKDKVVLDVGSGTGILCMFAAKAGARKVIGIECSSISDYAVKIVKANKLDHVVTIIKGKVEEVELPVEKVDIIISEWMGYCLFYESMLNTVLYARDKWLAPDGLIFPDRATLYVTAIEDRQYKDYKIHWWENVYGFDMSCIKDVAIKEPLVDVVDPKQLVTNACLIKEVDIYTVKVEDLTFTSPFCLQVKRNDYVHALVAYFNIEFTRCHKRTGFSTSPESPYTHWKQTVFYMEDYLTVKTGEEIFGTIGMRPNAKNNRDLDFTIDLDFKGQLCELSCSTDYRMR
Chain of USP16 C205 (Q9Y5T5) (Q9Y5T5 whole entry): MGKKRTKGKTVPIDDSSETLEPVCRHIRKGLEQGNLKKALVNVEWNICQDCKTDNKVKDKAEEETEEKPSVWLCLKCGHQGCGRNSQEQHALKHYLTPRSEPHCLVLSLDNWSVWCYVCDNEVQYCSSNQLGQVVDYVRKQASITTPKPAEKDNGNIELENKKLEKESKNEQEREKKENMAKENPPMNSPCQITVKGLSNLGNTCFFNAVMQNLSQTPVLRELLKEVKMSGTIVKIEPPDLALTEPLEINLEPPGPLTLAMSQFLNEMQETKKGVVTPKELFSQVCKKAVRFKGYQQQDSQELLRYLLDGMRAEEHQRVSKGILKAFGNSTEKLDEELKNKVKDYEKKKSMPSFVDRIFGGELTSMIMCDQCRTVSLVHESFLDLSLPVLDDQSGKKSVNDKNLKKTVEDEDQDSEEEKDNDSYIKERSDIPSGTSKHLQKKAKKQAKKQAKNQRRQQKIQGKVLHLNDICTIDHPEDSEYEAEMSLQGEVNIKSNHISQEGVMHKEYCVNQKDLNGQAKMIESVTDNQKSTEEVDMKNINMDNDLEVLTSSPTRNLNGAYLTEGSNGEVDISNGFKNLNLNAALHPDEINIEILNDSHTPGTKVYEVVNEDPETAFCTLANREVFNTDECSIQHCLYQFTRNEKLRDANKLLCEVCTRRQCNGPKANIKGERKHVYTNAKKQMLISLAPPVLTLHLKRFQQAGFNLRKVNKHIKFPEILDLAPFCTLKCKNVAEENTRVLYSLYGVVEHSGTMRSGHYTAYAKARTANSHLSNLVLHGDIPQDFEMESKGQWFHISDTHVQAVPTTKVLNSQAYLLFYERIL
Chain of CYR61 C70 (O00622) (O00622 25-381): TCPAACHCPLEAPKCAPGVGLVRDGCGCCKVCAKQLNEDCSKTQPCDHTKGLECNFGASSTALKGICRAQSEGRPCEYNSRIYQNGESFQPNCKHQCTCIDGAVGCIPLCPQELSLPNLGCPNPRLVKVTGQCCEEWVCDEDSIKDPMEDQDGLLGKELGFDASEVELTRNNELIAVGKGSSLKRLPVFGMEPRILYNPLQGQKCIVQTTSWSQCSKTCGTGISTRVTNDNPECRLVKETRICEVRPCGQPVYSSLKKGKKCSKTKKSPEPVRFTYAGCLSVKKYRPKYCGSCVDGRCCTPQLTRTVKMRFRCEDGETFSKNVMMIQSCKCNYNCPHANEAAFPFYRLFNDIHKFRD
T2 sequence (O75874 whole entry): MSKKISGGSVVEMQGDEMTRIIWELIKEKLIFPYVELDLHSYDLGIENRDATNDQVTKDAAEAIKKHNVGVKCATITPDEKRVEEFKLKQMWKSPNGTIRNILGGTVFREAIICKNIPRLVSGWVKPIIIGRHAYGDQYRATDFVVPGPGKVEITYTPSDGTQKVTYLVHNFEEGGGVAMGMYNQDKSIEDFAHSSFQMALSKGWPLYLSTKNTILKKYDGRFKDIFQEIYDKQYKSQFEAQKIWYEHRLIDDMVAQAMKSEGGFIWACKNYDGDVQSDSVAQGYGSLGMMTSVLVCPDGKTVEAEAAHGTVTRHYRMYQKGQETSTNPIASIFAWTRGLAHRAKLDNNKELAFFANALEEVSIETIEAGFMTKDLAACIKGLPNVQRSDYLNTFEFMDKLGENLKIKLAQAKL
Chain of ACO2 C385 (Q99798) (Q99798 28-780): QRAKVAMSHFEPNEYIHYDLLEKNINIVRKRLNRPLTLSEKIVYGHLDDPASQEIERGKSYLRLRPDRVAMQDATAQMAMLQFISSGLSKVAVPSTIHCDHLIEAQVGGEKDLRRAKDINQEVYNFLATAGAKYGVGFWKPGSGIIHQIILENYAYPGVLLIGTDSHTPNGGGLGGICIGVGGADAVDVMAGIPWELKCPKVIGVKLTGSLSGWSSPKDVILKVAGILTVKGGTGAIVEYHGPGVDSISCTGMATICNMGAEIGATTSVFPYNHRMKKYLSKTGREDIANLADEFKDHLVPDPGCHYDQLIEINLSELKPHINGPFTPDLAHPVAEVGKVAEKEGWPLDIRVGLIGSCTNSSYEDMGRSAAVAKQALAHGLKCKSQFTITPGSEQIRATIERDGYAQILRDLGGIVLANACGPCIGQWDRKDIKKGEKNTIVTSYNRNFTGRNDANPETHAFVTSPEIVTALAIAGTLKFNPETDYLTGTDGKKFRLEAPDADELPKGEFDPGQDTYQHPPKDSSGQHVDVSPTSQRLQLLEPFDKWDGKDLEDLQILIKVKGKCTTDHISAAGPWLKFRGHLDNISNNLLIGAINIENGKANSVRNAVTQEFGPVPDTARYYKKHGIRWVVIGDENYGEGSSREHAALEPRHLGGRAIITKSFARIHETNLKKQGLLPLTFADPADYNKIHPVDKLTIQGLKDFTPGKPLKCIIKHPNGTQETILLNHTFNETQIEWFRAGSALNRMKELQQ
T3 sequence (O75874 whole entry): as the sequence (O75874 whole entry) above

**Q.** How did the “isoTOP-ABPP ratio (reactivity profile), O00622_C70” value (CYR61 C70 (O00622); 500 μm in-vitro ramos_231) turn out when CC(C)CCOCCNC(=O)CCl [compound 27] was run?
**A.** 1.1

**Q.** For COc1ccc(C2CC(c3cccs3)=NN2C(=O)CCl)cc1 (centres unmarked) [compound 4], which “isoTOP-ABPP reactivity profile (ratio) 4_100 μM_in-situ_231” value (ACO2 C385 (Q99798); fragment 4 at 100 μM) is on record?
**A.** 1.0

**Q.** And the “isoTOP-ABPP reactivity profile (ratio) 4_100 μM_in-situ_231” value (USP16 C205 (Q9Y5T5); fragment 4 at 100 μM)?
**A.** 20.0

**Q.** How did the “R value (DMSO/fragment)” value (CYR61 C70 (O00622); 500 μM, in vitro, MDA-MB-231) turn out when O=C(CCl)Nc1cc(C(F)(F)F)cc(C(F)(F)F)c1 [compound 3] was run?
**A.** 20.0

**Q.** And the “blockade of IA-rhodamine labeling of PRMT1 (in words)” value (PRMT1 (C109); recombinant WT-PRMT1 in cell lysate)?
**A.** inactive

**Q.** What does the source list for COc1ccc2c(c1)CCCN2C(=O)CCl [compound 2]?
**A.** isoTOP-ABPP reactivity profile (ratio) 2_200 μM_in-situ_231 (ACO2 C385 (Q99798); fragment 2 at 200 μM): 20.0; IC50 (WT-IDH1 (C269)): > 50 µM; isoTOP-ABPP reactivity profile (ratio) 2_200 μM_in-situ_231 (USP16 C205 (Q9Y5T5); fragment 2 at 200 μM): 7.9

**Q.** With Cn1cc(S(=O)(=O)N2CCOCC2)cc1C(=O)NC(=O)CCl [compound 11] as the compound, how does the IC50 (PRMT1 (C109); recombinant WT-PRMT1 1 μM in cell lysate, fragment 1 h) read?
**A.** 36 µM

**Q.** O=C(CCl)N1CCC(C(O)(c2ccccc2)c2ccccc2)CC1 [compound 20] was tested. Which IC50 (WT-IDH1 (C269)) did it give?
**A.** 2.9 µM

**Q.** What about the “catalytic activity of WT-IDH1 (NADP+ to NADPH)” value (IDH1) of the same compound?
**A.** blocked in a concentration-dependent manner
